Experiment [1] deals with T1, Methionyl-tRNA synthetase, putative (Trypanosoma brucei brucei, UniProt Q38C91).
T1 sequence (Q38C91 whole entry): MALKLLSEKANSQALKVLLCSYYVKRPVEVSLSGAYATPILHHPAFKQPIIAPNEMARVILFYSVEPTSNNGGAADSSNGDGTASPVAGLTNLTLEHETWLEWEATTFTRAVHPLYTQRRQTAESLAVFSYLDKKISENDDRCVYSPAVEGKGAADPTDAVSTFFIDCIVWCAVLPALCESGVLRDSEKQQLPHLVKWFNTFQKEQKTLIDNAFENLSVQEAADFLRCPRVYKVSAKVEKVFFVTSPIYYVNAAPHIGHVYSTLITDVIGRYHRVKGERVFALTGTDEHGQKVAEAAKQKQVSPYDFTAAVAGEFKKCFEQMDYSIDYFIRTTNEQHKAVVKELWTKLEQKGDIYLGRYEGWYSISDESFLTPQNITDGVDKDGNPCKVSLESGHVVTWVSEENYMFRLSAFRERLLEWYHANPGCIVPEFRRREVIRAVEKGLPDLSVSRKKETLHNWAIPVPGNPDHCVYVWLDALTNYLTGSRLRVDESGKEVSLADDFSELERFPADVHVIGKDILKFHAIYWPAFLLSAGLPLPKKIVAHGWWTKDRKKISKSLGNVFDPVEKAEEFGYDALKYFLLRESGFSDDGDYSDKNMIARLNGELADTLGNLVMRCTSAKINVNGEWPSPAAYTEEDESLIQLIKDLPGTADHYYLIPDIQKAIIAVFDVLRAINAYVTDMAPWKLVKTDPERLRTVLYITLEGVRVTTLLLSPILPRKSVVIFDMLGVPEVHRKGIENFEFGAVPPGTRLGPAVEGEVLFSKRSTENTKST
In kind it is functional, Trypanosoma brucei brucei strain 927/4 GUTat10.1.

Experiment [2] concerns the target T1, Methionyl-tRNA synthetase, putative. Type of experiment: functional, Trypanosoma brucei brucei strain 927/4 GUTat10.1. This is another data set of the same source.
Experiment [3] is described as follows: Counterscreen for inhibitors of Trypanosoma brucei methionyl tRNA synthetase (MetRS): Luminescence-based cell-based high throughput dose response assay to identify compounds that are cytotoxic to Jurkat human T lymphocyte cells. Type of experiment: functional.
Experiment [4] concerns the target Induced myeloid leukemia cell differentiation protein Mcl-1 (Homo sapiens, UniProt Q07820). In kind it is functional.
Experiment [5] addresses DNA dC->dU-editing enzyme APOBEC-3A (Homo sapiens, UniProt P31941). The experiment is described as follows: Dose Response confirmation of small molecule APOBEC3A DNA Deaminase Inhibitors via a fluorescence-based single-stranded DNA deaminase assay. [Related pubchem assays (depositor defined):AID493011, AID493024]. Type of experiment: functional.
Experiment [6] concerns the target DNA dC->dU-editing enzyme APOBEC-3G (Homo sapiens, UniProt Q9HC16). In kind it is functional.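 Note: Dose-response counterscreen measuring inhibition of APOBEC3G DNA deaminase activity, run while confirming APOBEC3A inhibitors.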
Experiment [7] has as its target Eukaryotic translation initiation factor 4E (Mus musculus, UniProt P63073). The experiment is described as follows: blockers of eIF4G binding by eIF4E – biochemical, TR-FRET, dose response (AID 855).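 Note: potency for disrupting eIF4E binding to eIF4GI seen as loss of FRET.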 In kind it is functional. (In general: Time-resolved FRET reads energy transfer from a long-lived donor to a nearby acceptor.)
A further experiment deals with T2, Estrogen receptor (Homo sapiens, UniProt P03372).
T2 sequence (P03372 whole entry): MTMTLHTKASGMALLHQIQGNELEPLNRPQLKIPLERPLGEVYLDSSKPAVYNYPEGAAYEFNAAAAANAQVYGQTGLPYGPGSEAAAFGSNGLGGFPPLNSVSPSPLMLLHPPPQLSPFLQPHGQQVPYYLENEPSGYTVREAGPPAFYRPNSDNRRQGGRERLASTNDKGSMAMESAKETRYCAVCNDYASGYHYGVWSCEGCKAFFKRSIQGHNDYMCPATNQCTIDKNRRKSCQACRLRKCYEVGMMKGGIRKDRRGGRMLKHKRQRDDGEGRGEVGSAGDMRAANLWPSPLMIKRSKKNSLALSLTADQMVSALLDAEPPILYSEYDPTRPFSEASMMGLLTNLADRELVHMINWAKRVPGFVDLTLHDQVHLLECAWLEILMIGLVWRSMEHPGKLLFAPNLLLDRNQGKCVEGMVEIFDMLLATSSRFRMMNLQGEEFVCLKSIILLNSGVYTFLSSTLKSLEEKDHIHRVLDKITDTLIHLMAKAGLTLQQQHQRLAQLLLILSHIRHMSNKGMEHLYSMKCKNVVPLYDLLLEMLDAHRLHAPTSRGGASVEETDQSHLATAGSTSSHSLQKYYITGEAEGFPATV

Experiment [8] addresses T3, Mannose-6-phosphate isomerase (Homo sapiens, UniProt P34949).
T3 sequence (P34949 whole entry): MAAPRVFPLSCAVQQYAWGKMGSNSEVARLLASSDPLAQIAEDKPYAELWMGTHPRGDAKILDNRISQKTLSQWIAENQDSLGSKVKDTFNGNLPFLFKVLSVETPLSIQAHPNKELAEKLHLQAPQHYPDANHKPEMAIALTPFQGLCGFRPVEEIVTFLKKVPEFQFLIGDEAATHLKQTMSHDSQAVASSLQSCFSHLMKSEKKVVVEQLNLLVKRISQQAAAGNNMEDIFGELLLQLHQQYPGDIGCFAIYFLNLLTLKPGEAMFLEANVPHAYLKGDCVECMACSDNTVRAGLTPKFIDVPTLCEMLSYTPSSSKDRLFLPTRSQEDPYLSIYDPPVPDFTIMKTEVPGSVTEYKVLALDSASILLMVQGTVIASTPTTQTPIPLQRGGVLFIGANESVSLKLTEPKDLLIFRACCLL
As to the kind of experiment: MPI inhibition at elevated mannose 6-phosphate – biochemical, fluorescence intensity, high mannose 6-phosphate, primary screen (AID 1220).

Experiment [9] in a line: NIH3T3 cell viability loss – ATP luminescence, mouse fibroblasts, counter-screen, dose response (AID 2010).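 Note: cells exposed to compound for about 90 hours before reading.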 Type of experiment: functional, cell-based. (The purpose of a counterscreen is to sort out artefacts and off-target activity.)
Experiment [10] can be described thus: Trypanosoma cruzi growth suppression in host cells – NIH3T3 host cells, beta-gal luminescence, confirmation (AID 2044).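 Note: intracellular parasites grown in NIH/3T3 mouse fibroblasts as host cells; luminescent beta-galactosidase reporter signal from transgenic T. cruzi replicating inside host cells; inhibitors lower the luminescence signal.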 Type of experiment: functional, cell-based.
For the next experiment, the target named is Nonstructural protein 1 (Influenza A virus, UniProt Q194T2). Type of experiment: functional, Influenza A virus (A/California/07/2009(H1N1)).
Nonstructural protein 1, sequence (Q194T2 whole entry): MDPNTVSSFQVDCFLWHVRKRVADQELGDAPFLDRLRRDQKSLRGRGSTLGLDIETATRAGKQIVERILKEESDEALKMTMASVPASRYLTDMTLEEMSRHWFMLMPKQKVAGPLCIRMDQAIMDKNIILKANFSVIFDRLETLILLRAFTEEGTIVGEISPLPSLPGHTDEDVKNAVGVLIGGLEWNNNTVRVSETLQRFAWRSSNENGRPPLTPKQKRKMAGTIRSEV
Experiment [11] has as its target T4, Heat shock factor protein 1 (Mus musculus, UniProt P38532).
T4 sequence (P38532 whole entry): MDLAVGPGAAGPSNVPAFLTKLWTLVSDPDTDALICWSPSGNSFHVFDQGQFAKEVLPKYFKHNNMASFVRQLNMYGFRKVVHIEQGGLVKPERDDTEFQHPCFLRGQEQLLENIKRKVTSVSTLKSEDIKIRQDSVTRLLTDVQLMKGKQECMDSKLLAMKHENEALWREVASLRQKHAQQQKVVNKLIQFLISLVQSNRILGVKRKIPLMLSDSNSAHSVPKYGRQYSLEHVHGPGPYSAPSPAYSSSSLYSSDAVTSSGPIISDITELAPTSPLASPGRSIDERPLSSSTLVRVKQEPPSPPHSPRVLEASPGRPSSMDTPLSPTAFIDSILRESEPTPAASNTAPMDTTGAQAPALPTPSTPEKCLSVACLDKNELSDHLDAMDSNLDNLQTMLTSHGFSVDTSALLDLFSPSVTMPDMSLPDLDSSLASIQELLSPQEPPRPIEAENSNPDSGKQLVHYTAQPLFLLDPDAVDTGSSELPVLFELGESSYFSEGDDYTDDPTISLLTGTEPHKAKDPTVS
The experiment is described as follows: decrease of HSF1-responsive luciferase luminescence – cell-based, NIH3T3, dose retest, confirmation (AID 2382).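 Note: NIH3T3 fibroblasts with HSF1-driven luciferase reporter stressed by proteasome inhibitor MG132; luminescence from HSF1-driven luciferase expression after 8 hours of MG132 stress.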 Type of experiment: functional.

The next experiment addresses Prothrombin (Homo sapiens, UniProt P00734). As to the kind of experiment: Thrombin 1536 HTS Dose Response Confirmation. [Related pubchem assays: 1046 (Thrombin 1536 HTS; hits were confirmed in this assay)]. In kind it is functional.
Experiment [12] is described as follows: viability inhibitors of stage V gametocytes – luminescence, dose response (AID 1117278).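 Note: gametocytes exposed to compound for 24 hours.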 Type of experiment: functional, cell-based.
Experiment [13] can be described thus: viability loss in human Jurkat cells – cell-based, luminescence, cytotoxicity control for P. falciparum gametocyte viability project, dose response (AID 1117277).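 Note: potency reflects loss of cellular ATP meaning fewer viable cells.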 Type of experiment: functional.
Experiment [14] addresses T5, Carboxy-terminal domain RNA polymerase II polypeptide A small phosphatase 1 (Homo sapiens, UniProt Q9GZU7).
T5 sequence (Q9GZU7 whole entry): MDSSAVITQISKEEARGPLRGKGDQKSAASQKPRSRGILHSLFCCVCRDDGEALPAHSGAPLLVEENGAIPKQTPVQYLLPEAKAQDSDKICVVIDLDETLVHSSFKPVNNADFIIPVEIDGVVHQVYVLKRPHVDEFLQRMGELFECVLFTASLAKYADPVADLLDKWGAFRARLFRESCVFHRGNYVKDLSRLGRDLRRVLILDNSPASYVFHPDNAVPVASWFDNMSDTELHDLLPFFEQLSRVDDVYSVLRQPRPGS
As to the kind of experiment: CTDSP1 inhibitors, concentration-response, biochemical, absorbance readout, ultra-high-throughput screen actives (AID 540297). In kind it is functional.

As a reminder, the IC50 is the point on the concentration scale where inhibition reaches its midpoint. The term EC50 denotes the concentration needed to bring the measured effect to its halfway point.

Molecules are shown by their SMILES. Active and inactive are the calls of the source. Bounds are passed on as bounds.

DNA dC->dU-editing enzyme APOBEC-3A, sequence (P31941 whole entry): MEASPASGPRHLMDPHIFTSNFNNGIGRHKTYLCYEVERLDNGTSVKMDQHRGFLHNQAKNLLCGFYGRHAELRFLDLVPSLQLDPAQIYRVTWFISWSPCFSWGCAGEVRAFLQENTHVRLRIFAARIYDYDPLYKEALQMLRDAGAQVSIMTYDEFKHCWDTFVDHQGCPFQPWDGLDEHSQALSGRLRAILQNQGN
DNA dC->dU-editing enzyme APOBEC-3G, sequence (Q9HC16 whole entry): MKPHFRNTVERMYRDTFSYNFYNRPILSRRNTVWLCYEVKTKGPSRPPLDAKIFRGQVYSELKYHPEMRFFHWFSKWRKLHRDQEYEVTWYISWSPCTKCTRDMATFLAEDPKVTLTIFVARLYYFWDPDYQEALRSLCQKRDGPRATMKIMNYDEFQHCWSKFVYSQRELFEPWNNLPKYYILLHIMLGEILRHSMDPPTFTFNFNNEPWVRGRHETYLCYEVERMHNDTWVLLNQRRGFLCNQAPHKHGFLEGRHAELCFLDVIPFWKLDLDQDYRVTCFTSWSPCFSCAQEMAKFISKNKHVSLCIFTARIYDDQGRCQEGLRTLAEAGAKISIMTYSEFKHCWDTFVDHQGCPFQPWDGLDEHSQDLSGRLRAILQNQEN
Induced myeloid leukemia cell differentiation protein Mcl-1, sequence (Q07820 whole entry): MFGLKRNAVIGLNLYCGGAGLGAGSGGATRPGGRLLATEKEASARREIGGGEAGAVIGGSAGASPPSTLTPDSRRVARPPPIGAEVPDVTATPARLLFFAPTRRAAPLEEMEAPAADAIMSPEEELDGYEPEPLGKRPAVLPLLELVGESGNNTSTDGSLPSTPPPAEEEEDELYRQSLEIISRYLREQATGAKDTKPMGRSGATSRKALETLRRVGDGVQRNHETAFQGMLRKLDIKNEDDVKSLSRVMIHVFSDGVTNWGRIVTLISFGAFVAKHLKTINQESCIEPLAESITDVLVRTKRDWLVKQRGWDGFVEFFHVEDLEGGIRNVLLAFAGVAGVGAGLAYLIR
Eukaryotic translation initiation factor 4E, sequence (P63073 whole entry): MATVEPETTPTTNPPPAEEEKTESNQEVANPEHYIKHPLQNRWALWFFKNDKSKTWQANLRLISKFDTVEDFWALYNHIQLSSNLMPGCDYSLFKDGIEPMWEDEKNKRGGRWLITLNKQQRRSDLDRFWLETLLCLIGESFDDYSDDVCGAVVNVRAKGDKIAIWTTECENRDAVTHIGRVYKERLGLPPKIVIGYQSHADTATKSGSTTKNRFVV

For the compound `Cn1nc(C(F)(F)F)c(-c2cccc(C(F)(F)F)c2)c1NC(=O)Nc1ccc(F)cc1`, the IC50 in [1] was 10.4 µM (inactive); in experiment [2], 119 µM (inactive); in experiment [3], 28.9 µM (inactive).
In the case of `CCOC(=O)C1=C(Nc2ccc(OC)cc2)S/C(=C\c2cc(OC)c(O)c(OC)c2)C1=O`, in experiment [4], the IC50 is on record as 4.24 µM (not active).
In the case of `COc1cc(/C=C(/C#N)C(=O)NCCCc2ccccc2)ccc1OCC(=O)O`, the figures for the IC50 in experiment [5] and in experiment [6] were 1.61 µM (active) and 3.23 µM (active), respectively.
For the compound `Cc1ccc(CNC(=O)c2ccc(-n3cccc3)cc2)cc1`, the results for the IC50 in experiment [4] and in [7] were 3.27 µM (active) and 50 µM (inactive), respectively.
For `CC(=O)NCCOC(=O)Nc1ccncc1`, on Estrogen receptor, the IC50 is on record as > 50 µM (not active).
For `O=C(COc1cccc(-n2cnnn2)c1)Nc1ccccc1`, the IC50 was 38.2 µM (inactive) in [1], 76 µM (inactive) in [2] and 83.3 µM (inactive) in experiment [3].
As to `CCC(C)N1C(=O)NC(=O)C2(Cc3c(ccc4ccccc34)N(C)C2)C1=O` (stereo unspecified), the IC50 in experiment [8] is > 50 µM (not active).
In the case of `N#C/C(=C\C1=C(N2CCOCC2)C(=C\c2ccccc2)/CC1)C(=O)Nc1ccccc1F`, the EC50 in experiment [9] was > 60 µM (not active); in [10], 1.01 µM (active). Besides, at Nonstructural protein 1, the IC50 was 13.3 µM (active).
Regarding `O=C(Cc1ccc(Cl)c(Cl)c1)Nc1cccc(S(=O)(=O)N2CCOCC2)c1`, the IC50 was 4.48 µM (active) in experiment [1], 7.78 µM (active) in experiment [2] and 34.8 µM (inactive) in experiment [3].
Consider `CCOc1ccc2c(c1)[N+](C)(C)C(C)(C)C=C2C`, for which the results for the IC50 in experiment [5] and in experiment [6] were 2.96 µM (active) and 3.2 µM (active), respectively. The EC50 in [11] is > 195 µM (not active).
Consider `CS(=O)(=O)Nc1cccc(C(=O)CC2(O)C(=O)Nc3ccc(Br)cc32)c1` (stereo unspecified), for which the IC50 at Prothrombin is 0.525 µM (active).
In the case of `Cc1ccc(C(=O)NC(C)C(c2cccs2)N2CCCC2)s1` (stereo unspecified), the IC50 in experiment [12] was > 109 µM (inactive); in [13], > 83.3 µM (inactive); at Prothrombin, > 50 µM (not active).
In the case of `CCN1C(NCC2CC2)=N[C@@H](c2cccc(C(F)(F)F)c2)C(C(=O)OC)=C1C`, the IC50 in experiment [5] is 4.22 µM (active); in experiment [6], 6.71 µM (active).
With `Cc1ccc(Cl)cc1NS(=O)(=O)c1c(C)[nH]c(=O)[nH]c1=O`, the half-maximal inhibitory concentration (IC50) at Prothrombin is > 50 µM (not active).
Same read-out and setting: for `NC(=O)c1c(NC(=O)Cn2nc(C(=O)O)c3ccccc3c2=O)sc2c1CCCC2` the value was 24.3 µM (active).
Consider `CCc1ccc2[nH]c(=O)c(CN(Cc3ccc4c(c3)OCO4)C(=O)c3ccco3)cc2c1`, for which, at Estrogen receptor, the IC50 was 26.2 µM (active).
Turning to `Cc1ccc(Nc2nnc(SCC(=O)NCc3ccco3)s2)cc1`, at Estrogen receptor, the IC50 is 28.8 µM (active).
Turning to `COCC(=O)n1nc(-c2ccccc2)nc1NCc1cccs1`, the IC50 at Prothrombin was 0.467 µM (active).
Regarding `OC(c1cc(Cl)cc(Cl)c1)c1nc(-c2cccc(F)c2)c[nH]1` (stereo unspecified), the IC50 is 7.94 µM (active) in [1], 10.6 µM (inactive) in experiment [2] and 83.3 µM (inactive) in experiment [3].
`COc1ccccc1/C=c1\sc2nc(-c3ccco3)nn2c1=O`: the values for the 50% inhibitory concentration (IC50) (on Estrogen receptor; in experiment [14]; in [4]) were 17.5 µM (active), 5 µM (active) and 7.38 µM (active), respectively.
Turning to `OCC(CO)(CO)/N=C/c1c(O)ccc2ccccc12`, the IC50 in experiment [8] is 38.6 µM (active).
Take `COc1ccc(N2CC(C(=O)N/N=C/c3cc([N+](=O)[O-])ccc3O)CC2=O)cc1` (stereo unspecified): at Nonstructural protein 1, the IC50 was 17.8 µM (active).

The record behind these values is ChEMBL document CHEMBL1201862, “PubChem BioAssay data set” (2004).
